The text below walks through data of patent EP3741762A1, “OXALAMIDO-SUBSTITUTED TRICYCLIC INHIBITORS OF HEPATITIS B VIRUS” (priority 2019, dated 2020).

One may read the EC50 as the concentration needed to bring the measured effect to its halfway point.

SMILES strings stand for the structures. Bounds are passed on as bounds.

The assay concerns HBV. Kind of assay: Anti-HBV activity in vitro: quantification of extracellular HBV DNA by direct qPCR in HepAD38 cells. Type of assay: cell-based. The following applies: Hepatitis B virus, tetracycline-free medium, 96 hours at 37°C, reported as EC50 threshold value, read-out: HBV inh EC50. The source says: HepAD38 cell line (Ladner et al., Antimicrob Agents Chemother, 1997, 41, 1715-20) was used for HBV inhibition assays. HepAD38 is a subclone, derived from Hepatoblastoma cell line HepG2 (ATCC® Number: HB-8065™), that expresses HBV genome under the transcriptional control of a tetracycline-responsive promoter in a TET-OFF system: addition of tetracycline (TET) or doxycycline suppresses HBV replication, while its removal switches on the process allowing HBV viral particles release in the cell supernatant. HepAD38 cell line is maintained in DMEM/F12, supplemented with 10% of fetal bovine serum, 1% of glutamine, 1% of penicillin/streptomycin, 0.4 mg/ml G418 and 0,3 ug/ml tetracycline. For the HBV inhibition assay, doxycycline-free medium is used in order to allow virion production.
HBV inhibition activity in vitro was performed in 96 multiwell plates. During the initial (primary) screening, compounds were first tested in triplicates at concentrations of 0.02 µM, 0.1 µM, 0.5µM and 1µM. For selected compounds, an 8-point dose-response curve was obtained using 1:2 serial dilutions (starting from 0.01µM, 0.1µM, 0.4µM or 5 µM, depending on the degree of inhibition observed during the primary screening). From the dose-response curves, half maximal effective concentration (EC50) could be calculated (see also below).
In more detail, compounds - typically dissolved in DMSO stock solutions - were diluted to 2x the final desired concentration in 100 µl of the above medium (without doxycycline) and plated in three replicates in the 96-well plates.
Simultaneously, HepAD38 cells - extensively pre-washed in tetracycline-free medium in order to induce HBV production - were suspended at 2^∗10^4 cells in 100 µl of tetracycline-free medium and added to each well of the plate, to yield a final assay volume of 200 µl DMSO - used for stock solutions and compounds dilutions - which was always present in the assays at a final concentration of 0.5%.
Plates were then incubated 96 hours at 37°C and then subjected to cell viability assays and extracellular HBV quantification, in order to evaluate both the cytotoxic potential and the antiviral activity of compounds. Cytotoxicity was assessed by a commercial fluorescence assay that measures the metabolic activity of cells, directly related to cell viability (Cell Titer Blue, Promega). Anti-HBV activity was evaluated by quantification of extracellular HBV DNA with direct qPCR. In particular, supernatant was collected and centrifuged for cell debris clarification, viral DNA was extracted from virions by addition of lysis buffer (1 mM 1,4-dithiothreitol, 0.2% sodium dodecyl sulphate) and incubated at 95°C for 10 min. Samples were then diluted 1:40 and real time PCR amplification was performed with SYBR green assay (Power SYBR™ Green PCR Master Mix-Thermo Fisher Scientific) and specific HBV primer (HBV-DF:5'-[…]-3' (SEQ ID No. 1), HBV-DR:5'-[…]-3' (SEQ ID No.2)).
Antiviral activity data for each compound are reported as EC50 threshold value (see Table 1 legend). Excel and Graphpad Prism programs are typically used for data elaboration and EC50 calculation.
A general note: Quantitative PCR measures a nucleic acid by following its amplification.
With `Cc1cc(NC(=O)c2c3c(cn2C)S(=O)(=O)N[C@H]2CN(C(=O)C(=O)NCC(F)(F)F)C[C@H]2CO3)ccc1F` [Example E17, (3aR,10aR)-N-(4-fluoro-3-methylphenyl)-7-methyl-2-(2-oxo-2-((2,2,2-trifluoroethyl)amino)acetyl)-2,3,3a,4,10,10a-hexahydro-1H,7H-dipyrrolo[3,4-b:3',4'-f][1,4,5]oxathiazocine-8-carboxamide 5,5-dioxide], the concentration giving a half-maximal response (EC50) is less than 500 nM.

Take `Cc1cc(NC(=O)c2c3c(cn2C)S(=O)(=O)N[C@H]2CN(C(=O)C(=O)NC4(C)COC4)C[C@H]2CO3)ccc1F` [Example E3, (3aR,10aR)-N-(4-fluoro-3-methylphenyl)-7-methyl-2-(2-((3-methyloxetan-3-yl)amino)-2-oxoacetyl)-2,3,3a,4,10,10a-hexahydro-1H,7H-dipyrrolo[3,4-b:3',4'-f][1,4,5]oxathiazocine-8-carboxamide 5,5-dioxide]: the EC50 is less than 500 nM.

On to `Cc1cc(NC(=O)c2c3c(cn2C)S(=O)(=O)N[C@H]2CN(C(=O)C(=O)NCC(F)(F)F)C[C@H]2CS3)ccc1F` [Example E38, (3aR,10aR)-N-(4-fluoro-3-methylphenyl)-7-methyl-2-(2-oxo-2-((2,2,2-trifluoroethyl)amino)acetyl)-2,3,3a,4,10,10a-hexahydro-1H,7H-dipyrrolo[3,4-c:3',4'-g][1,6,2]dithiazocine-8-carboxamide 5,5-dioxide], for which the EC50 was less than 500 nM.

`Cc1cc(NC(=O)c2c3c(cn2C)S(=O)(=O)N[C@H]2CN(C(=O)C(=O)NC4(C(F)(F)F)CCC4)C[C@H]2CO3)ccc1F` [Example E33, (3aR,10aR)-N-(4-fluoro-3-methylphenyl)-7-methyl-2-(2-oxo-2-((1-(trifluoromethyl)cyclobutyl)amino)acetyl)-2,3,3a,4,10,10a-hexahydro-1H,7H-dipyrrolo[3,4-b:3',4'-f][1,4,5]oxathiazocine-8-carboxamide 5,5-dioxide]: the EC50 was less than 500 nM.

Turning to `Cn1cc2c(c1C(=O)Nc1cc(F)c(F)c(F)c1)OC[C@@H]1CN(C(=O)C(=O)NC3(C)COC3)C[C@@H]1NS2(=O)=O` [Example E4, (3aR,10aR)-7-methyl-2-(2-((3-methyloxetan-3-yl)amino)-2-oxoacetyl)-N-(3,4,5-trifluorophenyl)-2,3,3a,4,10,10a-hexahydro-1H,7H-dipyrrolo[3,4-b:3',4'-f][1,4,5]oxathiazocine-8-carboxamide 5,5-dioxide], the EC50 was less than 500 nM.

Turning to `Cc1cc(NC(=O)c2c3c(cn2C)S(=O)(=O)N[C@]2(C)CN(C(=O)C(=O)NC4CC4)C[C@@H]2CO3)ccc1F` (relative stereo) [Example E28, cis-2-(2-(cyclopropylamino)-2-oxoacetyl)-N-(4-fluoro-3-methylphenyl)-3a,7-dimethyl-2,3,3a,4,10,10a-hexahydro-1H,7H-dipyrrolo[3,4-b:3',4'-f][1,4,5]oxathiazocine-8-carboxamide 5,5-dioxide], the EC50 was less than 500 nM.

For `Cc1cc(NC(=O)c2c3c(cn2C)S(=O)(=O)N[C@H]2CN(C(=O)C(=O)N4CC(F)(F)C4)C[C@H]2CS3)ccc1F` [Example E36, (3aR,10aR)-2-(2-(3,3-difluoroazetidin-1-yl)-2-oxoacetyl)-N-(4-fluoro-3-methylphenyl)-7-methyl-2,3,3a,4,10,10a-hexahydro-1H,7H-dipyrrolo[3,4-c:3',4'-g][1,6,2]dithiazocine-8-carboxamide 5,5-dioxide], the EC50 was less than 500 nM.

As for `CN(C)C(=O)C(=O)N1C[C@@H]2COc3c(cn(C)c3C(=O)Nc3cc(F)c(F)c(F)c3)S(=O)(=O)N[C@@H]2C1` (relative stereo) [Example E1, cis-2-(2-(dimethylamino)-2-oxoacetyl)-7-methyl-N-(3,4,5-trifluorophenyl)-2,3,3a,4,10,10a-hexahydro-1H,7H-dipyrrolo[3,4-b:3',4'-f][1,4,5]oxathiazocine-8-carboxamide 5,5-dioxide], the EC50 was less than 500 nM.

Regarding `CNC(=O)C(=O)N1C[C@H]2CSc3c(cn(C)c3C(=O)Nc3ccc(F)c(C)c3)S(=O)(=O)N[C@H]2C1` [Example E35, (3aR,10aR)-N-(4-fluoro-3-methylphenyl)-7-methyl-2-(2-(methylamino)-2-oxoacetyl)-2,3,3a,4,10,10a-hexahydro-1H,7H-dipyrrolo[3,4-c:3',4'-g][1,6,2]dithiazocine-8-carboxamide 5,5-dioxide], the EC50 is less than 500 nM.

On to `Cc1cc(NC(=O)c2c3c(cn2C)S(=O)(=O)N[C@@H]2CN(C(=O)C(=O)N[C@H](C)C(F)(F)F)C[C@H]2CO3)ccc1F` (stereo in doubt) [Example E30, trans-N-(4-fluoro-3-methylphenyl)-7-methyl-2-(2-oxo-2-(((R)-1,1,1-trifluoropropan-2-yl)amino)acetyl)-2,3,3a,4,10,10a-hexahydro-1H,7H-dipyrrolo[3,4-b:3',4'-f][1,4,5]oxathiazocine-8-carboxamide 5,5-dioxide], for which the EC50 is less than 500 nM.

Take `Cc1cc(NC(=O)c2c3c(cn2C)S(=O)(=O)N[C@H]2CN(C(=O)C(=O)N[C@@H](C)C(F)(F)F)C[C@H]2CS3)ccc1F` [Example E37, (3aR,10aR)-N-(4-fluoro-3-methylphenyl)-7-methyl-2-(2-oxo-2-(((S)-1,1,1-trifluoropropan-2-yl)amino)acetyl)-2,3,3a,4,10,10a-hexahydro-1H,7H-dipyrrolo[3,4-c:3',4'-g][1,6,2]dithiazocine-8-carboxamide 5,5-dioxide]: the EC50 was less than 500 nM.

Turning to `Cc1cc(NC(=O)c2c3c(cn2C)S(=O)(=O)N[C@H]2CN(C(=O)C(=O)NC4CC4)C[C@H]2CS3)ccc1F` [Example E23, (3aR,10aR)-2-(2-(cyclopropylamino)-2-oxoacetyl)-N-(4-fluoro-3-methylphenyl)-7-methyl-2,3,3a,4,10,10a-hexahydro-1H,7H-dipyrrolo[3,4-c:3',4'-g][1,6,2]dithiazocine-8-carboxamide 5,5-dioxide], the EC50 was less than 500 nM.

Consider `Cc1cc(NC(=O)c2c3c(cn2C)S(=O)(=O)N[C@H]2CN(C(=O)C(=O)NCC4CC4)C[C@H]2CS3)ccc1F` [Example E39, (3aR,10aR)-2-(2-((cyclopropylmethyl)amino)-2-oxoacetyl)-N-(4-fluoro-3-methylphenyl)-7-methyl-2,3,3a,4,10,10a-hexahydro-1H,7H-dipyrrolo[3,4-c:3',4'-g][1,6,2]dithiazocine-8-carboxamide 5,5-dioxide], for which the EC50 was less than 500 nM.

With `Cc1cc(NC(=O)c2c3c(cn2C)S(=O)(=O)N[C@@H]2CN(C(=O)C(=O)N[C@H](C)C(F)(F)F)C[C@]2(C)CO3)ccc1F` (stereo in doubt) [Example E26, Cis-N-(4-fluoro-3-methylphenyl)-7,10a-dimethyl-2-(2-oxo-2-(((R)-1,1,1-trifluoropropan-2-yl)amino)acetyl)-2,3,3a,4,10,10a-hexahydro-1H,7H-dipyrrolo[3,4-b:3',4'-f][1,4,5]oxathiazocine-8-carboxamide 5,5-dioxide], the EC50 was less than 500 nM.

As for `Cc1cc(NC(=O)c2c3c(cn2C)S(=O)(=O)N[C@H]2CN(C(=O)C(=O)NC4(C(F)(F)F)CC4)C[C@H]2CO3)ccc1F` [Example E19, (3aR,10aR)-N-(4-fluoro-3-methylphenyl)-7-methyl-2-(2-oxo-2-((1-(trifluoromethyl)cyclopropyl)amino)acetyl)-2,3,3a,4,10,10a-hexahydro-1H,7H-dipyrrolo[3,4-b:3',4'-f][1,4,5]oxathiazocine-8-carboxamide 5,5-dioxide], the EC50 is less than 500 nM.
